How the values were obtained:
Bcl-xL = test: Amount of Bcl-xL protein by western blotting in apoptosis-induced cells; format: cell-based, human; details: serum-free medium, 24 hours; FIG. 11
Description: Meanwhile, a variety of signal transduction proteins are involved in a process for mediating or inhibiting apoptosis, and representative examples thereof include Bcl-2 gene family proteins (Journal of Bioenergetics and Biomembranes, 37:179-190 (2005); J. Cell Mol. Med., 7:249-257 (2003); Genes and Development, 13:1899-1911 (1999)). Thus, 0.1, 1 and 10 of CBI or 0.1, 1 and 10 of rasagiline were respectively added to the apoptosis-induced cells as described above, the resulting cells were further incubated in 5% of CO2 at 37° C. for 24 hours, mRNA was extracted from the cultured cells or a cell extract was obtained therefrom, and thus the amount of Bcl-2 mRNA and the amounts of Bcl-2 and Bcl-xL proteins were measured. The amount of Bcl-2 mRNA was measured by real-time RT-PCR, and the amounts of Bcl-2 and Bcl-xL proteins were measured by western blotting.
For western blotting, the SH-SY5Y cells were lysed with RIPA buffer (50 mM Tris-Cl pH 7.4, 1% NP-40, 0.25% sodium deoxycholate, 0.1% SDS, 150 mM NaCl, 1 mM EDTA) and then centrifuged to obtain a cell extract. […]

SOD = test: Activity of SOD in striatum and substantia nigra of mouse; format: in vivo, C57BL/6 mice; details: 1 mg/kg oral for 8 days, no neurotoxin; FIG. 22
Description: Next day after the last day of administration, striatum and substantia nigra tissues were taken out of each group of mice. Cell extracts were obtained from the cells of the tissues, and thus the activities of the catalase, SOD and GPx were measured.

NC(=O)OCc1cc(-c2ccc(OCc3ccccc3)cc2)no1 [CBI, carbamic acid 3-(4-benzyloxy-phenyl)-isoxazole-5-yl methylester]
amount of Bcl-xL relative to control (Bcl-xL): larger than that in the control | activity of the SOD (SOD): no significant change
